# Source: patent US11795162B2, “Modulators of the estrogen-related receptor” (Saint Louis University, priority 2017, dated 2023)
# Target: T1, ERRγ (Homo sapiens, UniProt P62508)
# T1 construct: Data for selected compounds in the full-length; expressed in transfected cells; host or cells: HEK293
# T1 sequence (P62508 1-458): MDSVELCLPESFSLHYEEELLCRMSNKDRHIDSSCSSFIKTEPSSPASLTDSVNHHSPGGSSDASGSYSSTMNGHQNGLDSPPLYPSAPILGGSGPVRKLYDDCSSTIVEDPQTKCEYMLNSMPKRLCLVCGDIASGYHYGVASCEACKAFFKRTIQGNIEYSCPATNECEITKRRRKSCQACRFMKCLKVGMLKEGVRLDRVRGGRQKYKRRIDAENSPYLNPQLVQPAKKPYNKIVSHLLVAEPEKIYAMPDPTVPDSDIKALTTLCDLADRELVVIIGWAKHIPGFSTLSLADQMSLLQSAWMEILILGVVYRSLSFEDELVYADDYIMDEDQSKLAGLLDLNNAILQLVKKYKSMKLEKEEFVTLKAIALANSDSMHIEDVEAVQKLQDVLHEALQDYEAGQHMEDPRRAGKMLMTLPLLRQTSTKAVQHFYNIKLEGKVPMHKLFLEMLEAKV
# Test: Full-length ERRγ luciferase reporter assay (ERRE reporter, HEK293 cells)
# Assay type: cell-based
# Details: HEK293 cells transfected with ERRE reporter and pcDNA3.1 ERRγ, 24 hours treatment
# Experimental: Luciferase Assay. HEK293 cells were maintained in Dulbecco's modified Eagles medium (DMEM) supplemented with 10% fetal bovine serum at 37° C. under 5% CO2. […] Cells were transfected with ERRE reporter construct and pcDNA3.1 ERRγ. 24 hour post-transfection, the cells were treated with vehicle or compound for 24 hours.
row,EC50,SMILES
1,3400 nM,O=C(Nc1cccc(F)c1)c1ccc(-c2ccc(O)cc2)o1 [Compound 157]
2,89 nM,"O=C(Nc1cccc(F)c1)c1ccc(-c2ccc(B(O)O)cc2)s1 [Compound 8, (4-(5-((3-fluorophenyl)carbamoyl)thiophen-2-yl)phenyl)boronic acid]"
3,2680 nM,O=C(Nc1ccc(O)cc1)c1ccc(-c2ccc(C(F)(F)F)cc2)s1 [Compound 114]
4,3500 nM,O=C(NC1CCC(O)CC1)c1ccc(-c2ccccc2)o1 (stereo not shown) [Compound 135]
5,> 25000 nM,O=C(Nc1ccc(Cl)cc1)c1cc(-c2cccc(O)c2)[nH]n1 [Compound 125]
6,563 nM,O=C(Nc1cccc(B(O)O)c1)c1ccc(-c2cccc(F)c2)s1 [Compound 50]
7,734 nM,O=C(Nc1ccc2ccccc2c1)c1cc(-c2ccc(O)cc2)[nH]n1 [Compound 122]
8,1010 nM,O=C(Nc1cccc(O)c1)c1ccc(-c2ccsc2)s1 [Compound 74]

# Target: T2, ERR gamma protein (Homo sapiens, UniProt P62508)
# T2 sequence (P62508 1-458): T1 sequence (P62508 1-458)
# Test: Protein thermal shift assay
# Assay type: binding
# Details: compound at 20 μM; ERR gamma protein 0.1 mg/mL, SYPRO-Orange; read-out: T.S. (thermal shift) range
# Experimental: Six replicate reactions were set up and run in Applied Biosystems Quantstudio 7 Real-Time PCR system. Data were collected at a ramp rate of 0.05° C./s from 24° C. through 95° C. and analyzed using Protein Thermal Shift Software 1.3.
row,ΔTm at 20 µM,SMILES
1,2 to 4 °C,O=C(Nc1ccc(O)cc1)c1ccc(-c2ccc(C(F)(F)F)cc2)s1 [Compound 114]
2,2 to 4 °C,O=C(Nc1ccc(Cl)cc1)c1cc(-c2cccc(O)c2)[nH]n1 [Compound 125]
3,2 to 4 °C,O=C(Nc1cccc(B(O)O)c1)c1ccc(-c2cccc(F)c2)s1 [Compound 50]
4,0 to 2 °C,CC(C)c1ccc(-c2ccc(C(=O)Nc3ccccn3)s2)cc1 [Compound 137]
5,2 to 4 °C,O=C(Nc1ccncc1)c1ccc(-c2ccc3ccccc3c2)s1 [Compound 120]
6,0 to 2 °C,Cc1ccccc1NC(=O)c1ccc(-c2cccc(O)c2)s1 [Compound 149]
7,0 to 2 °C,O=C(Nc1cccnc1)c1ccc(-c2ccc(C(F)(F)F)cc2)s1 [Compound 112]
8,0 to 2 °C,O=C(Nc1ccc(Cl)cc1)c1ccc(-c2ccc(C(F)(F)F)cc2)s1 [Compound 111]
9,2 to 4 °C,O=C(Nc1ccc2ncsc2c1)c1ccc(-c2ccc(O)cc2)o1 [Compound 41]
10,0 to 2 °C,O=C(Nc1ccc(Cl)cc1)c1ccc(-c2ccc(F)cc2)s1 [Compound 92]
11,0 to 2 °C,Cc1ccc(-c2ccc(C(=O)Nc3ccc(Cl)cc3)s2)cc1C [Compound 80]
12,0 to 2 °C,CC(C)Oc1ccc(-c2ccc(C(=O)Nc3cccnc3)s2)cc1 [Compound 115]
13,2 to 4 °C,O=C(Nc1ccc(F)cc1)c1ccc(-c2ccc(B(O)O)cc2)s1 [Compound 17]
14,2 to 4 °C,"CC(C)c1ccc(NC(=O)c2cc(-c3ccc(O)cc3)[nH]n2)cc1 [Compound 5, 3-(4-hydroxyphenyl)-N-(4-isopropylphenyl)-1H-pyrazole-5-carboxamide]"
15,0 to 2 °C,CC(C)c1cccc(-c2ccc(C(=O)Nc3cccnc3)s2)c1 [Compound 118]
16,2 to 4 °C,O=C(Nc1cccc(B(O)O)c1)c1ccc(-c2ccccc2F)s1 [Compound 44]
17,0 to 2 °C,O=C(Nc1ccc(Cl)cc1)c1ccc(-c2cccc(C(F)(F)F)c2)s1 [Compound 107]
18,0 to 2 °C,COc1cc(NC(=O)c2ccc(-c3ccc(Cl)cc3)s2)cc(OC)c1 [Compound 75]
19,2 to 4 °C,O=C(Nc1ccc2ccccc2c1)c1cc(-c2ccc(O)cc2)[nH]n1 [Compound 122]
20,0 to 2 °C,O=C(Nc1cccc(O)c1)c1nc(-c2ccsc2)cs1 [Compound 152]
21,0 to 2 °C,O=C(Nc1ccncc1)c1ccc(-c2ccc(F)cc2)s1 [Compound 94]
22,2 to 4 °C,CCOc1ccc(NC(=O)c2ccc(-c3cccc(O)c3)s2)cc1 [Compound 52]
23,0 to 2 °C,N#Cc1ccc(-c2ccc(C(=O)Nc3ccc(Cl)cc3)s2)cc1 [Compound 99]
24,0 to 2 °C,O=C(Nc1ccc(C(F)(F)F)cc1)c1ccc(-c2ccncc2)s1 [Compound 69]
25,2 to 4 °C,O=C(Nc1ccc(O)cc1)c1ncc(-c2ccsc2)s1 [Compound 146]
26,> 4 °C,CCOc1ccc(NC(=O)c2ccc(-c3cccc(N)c3)s2)cc1 [Compound 51]
27,0 to 2 °C,CC(C)c1cccc(-c2ccc(C(=O)Nc3ccc(Cl)cc3)s2)c1 [Compound 117]
28,0 to 2 °C,Nc1ccc(-c2ccc(C(=O)NCc3cccc(F)c3)o2)cc1 [Compound 36]
29,0 to 2 °C,O=C(Nc1ccccc1F)c1ccc(-c2cccc(B(O)O)c2)s1 [Compound 59]
